Patent publication US7860552B2, “CNS assay for prediction of therapeutic efficacy for neuropathic pain and other functional illnesses” (The McLean Hospital Corporation, priority 2004, dated 2010)

What was measured:
neuropathic pain = conditions: known efficacy in human neuropathic pain; cited from earlier work
healthy subjects = test: fMRI of CNS activation in healthy subjects after a thermal stimulus (>44° C.); type: in vivo, human; conditions: compared with the placebo response, FIG. 2
Procedure: The methods of the invention generally involve the administration of a therapeutic intervention, e.g., a compound, to a subject, e.g., a mammal such as a human, non-human primate, or a rodent (e.g., a rat or mouse). In one embodiment, an acute painful stimulus, e.g., a thermal stimulus, is then administered to the subject. An appropriate time delay may be used in order to achieve appropriate therapeutic effect in the blood and/or CNS prior to administration of the stimulus. Levels of activation of the central nervous system (CNS) of the subject are then measured, typically by a neuroimaging technique such as fMRI. When a therapeutic intervention is being evaluated for efficacy against the functional illness, the levels of activity are examined to determine whether the intervention alters activity in the CNS (FIG. 1). The levels of activity may be determined with reference to one or more specific regions of the CNS, such as those associated, either directly or indirectly with the functional illness, or a general level of activity for the entire CNS, or portion thereof, may be determined without reference to specific anatomical or functional regions. Any alteration in the level of activity may be determined relative to a control, such as levels of activity in a subject treated with placebo or a therapeutic intervention with known efficacy against the functional illness. The method is advantageous in that the subject need not be suffering from the functional illness in order to determine the efficacy of a therapeutic intervention for the illness. […]
The present invention typically employs an imaging technique for measuring the level of activation of the CNS, e.g., by determining blood flow in the CNS. […] In addition, the imaging methods may also be employed to determine a general level of activation for the CNS, e.g., measured as the total number of activated voxels., without regard to the specific regions involved. […]

rats = test: fMRI of CNS activation in rats following heat stimulus; type: in vivo, rat; conditions: compared to placebo group, FIG. 6, FIG. 7
Procedure: The methods of the invention may employ non-human mammals, e.g., rats, as the subjects, in which experimental therapeutic interventions are evaluated. […] The left panels show serial coronal slices through the brain. The overall level of activation was decreased in the gabapentin group compared to the placebo group. The right panels show differences in activation in specific circuitry known to be involved in pain processing that was affected in somatosensory regions (SI), emotional regions (nucleus accumbens—NAc), autonomic regions (hypothalamus), and endogenous analgesic regions (periaqueductal gray).

Structure (SMILES)	Efficacy in neuropathic pain (neuropathic pain)	fMRI signal change (CNS activation) following the heat stimulus (healthy subjects)	Overall level of CNS activation (fMRI) (rats)
CN(C)CCCN1c2ccccc2CCc2ccccc21 [imipramine]	efficacy	decreasing signal change	
CC1(C)O[C@@H]2[C@@H](CO[C@@]3(COS(N)(=O)=O)OC(C)(C)O[C@@H]23)O1 [topiramate]	efficacy	decreasing signal change	
O=C(c1ccccc1)c1ccc2n1CCC2C(=O)O (stereo not shown) [ketorolac]	no efficacy		
CS(=O)(=O)c1ccc(C2=C(c3ccccc3)C(=O)OC2)cc1 [rofecoxib]	no efficacy		
O=C1CN=C(c2ccccc2Cl)c2cc([N+](=O)[O-])ccc2N1 [clonazepam]	no efficacy		
NCC1(CC(=O)O)CCCCC1 [gabapentin]	efficacy	decreasing signal change	decreased
